Literature values in patent publication US11931454B2, “Wet-packed soft hydrogel ocular inserts” (Alcon Inc., priority 2019, dated 2024).

Settings: arylboronic acid group of the monomer

Q: Which pKa does the source give for 3-(meth)acrylamidophenylboronic acid here?
A: Its pKa is roughly 8.2.

Q: Which pKa does the source give for “4-(1,6-Dioxo-2,5-diaza-7-oxamyl)phenylboronic acid” here?
A: Its pKa is roughly 7.8.

Q: Which pKa does the source give for `C=Cc1ccc(CN(C)C)c(B(O)O)c1` [2-Dimethylaminomethyl-5-vinylphenylboronic acid] here?
A: Its pKa is less than 7.8.

Q: Which pKa does the source give for `C=CCCS(=O)(=O)c1ccc(B(O)O)cc1` [4-(3-Butenylsulfonyl)phenylboronic acid] here?
A: Its pKa is roughly 7.1.

Q: For `C=CCNS(=O)(=O)c1ccc(B(O)O)cc1` [4-(N-allylsulfamoyl)phenylboronic acid], which pKa is on record?
A: The pKa was roughly 7.4.
